From the NIST ThermoML archive (doi:10.1016/j.fluid.2011.12.029)

Details: Liquid, Vibrating tube method

CCC[n+]1ccccc1Oc1ccc(Cl)c[n+]1CCOS(=O)(=O)[O-].F[B-](F)(F)F
Details | mass density [kg/m3]
283.15 K, 100 kPa | 1264.92
283.15 K, 5000 kPa | 1266.85
283.15 K, 10000 kPa | 1269.01
283.15 K, 15000 kPa | 1270.98
283.15 K, 20000 kPa | 1273.05
283.15 K, 25000 kPa | 1274.97
283.15 K, 30000 kPa | 1276.87
283.15 K, 35000 kPa | 1278.73
283.15 K, 40000 kPa | 1280.58
283.15 K, 45000 kPa | 1282.38
283.15 K, 50000 kPa | 1284.12
283.15 K, 55000 kPa | 1285.76
283.15 K, 60000 kPa | 1287.38
283.15 K, 65000 kPa | 1289.03
288.15 K, 100 kPa | 1260.92
288.15 K, 5000 kPa | 1262.99
288.15 K, 10000 kPa | 1265.09
288.15 K, 15000 kPa | 1267.22
288.15 K, 20000 kPa | 1269.26
288.15 K, 25000 kPa | 1271.11
288.15 K, 30000 kPa | 1273.09
288.15 K, 35000 kPa | 1275.02
288.15 K, 40000 kPa | 1276.87
288.15 K, 45000 kPa | 1278.72
288.15 K, 50000 kPa | 1280.38
288.15 K, 55000 kPa | 1282.18
288.15 K, 60000 kPa | 1283.78
288.15 K, 65000 kPa | 1285.51
293.15 K, 100 kPa | 1257.14
293.15 K, 5000 kPa | 1259.28
293.15 K, 10000 kPa | 1261.4
293.15 K, 15000 kPa | 1263.43
293.15 K, 20000 kPa | 1265.5
293.15 K, 25000 kPa | 1267.47
293.15 K, 30000 kPa | 1269.5
293.15 K, 35000 kPa | 1271.32
293.15 K, 40000 kPa | 1273.23
293.15 K, 45000 kPa | 1275.01
293.15 K, 50000 kPa | 1276.8
293.15 K, 55000 kPa | 1278.62
293.15 K, 60000 kPa | 1280.22
293.15 K, 65000 kPa | 1281.96
298.15 K, 100 kPa | 1253.37
298.15 K, 5000 kPa | 1255.54
298.15 K, 10000 kPa | 1257.73
298.15 K, 15000 kPa | 1259.9
298.15 K, 20000 kPa | 1262.01
298.15 K, 25000 kPa | 1263.98
298.15 K, 30000 kPa | 1265.98
298.15 K, 35000 kPa | 1267.9
298.15 K, 40000 kPa | 1269.81
298.15 K, 45000 kPa | 1271.6
298.15 K, 50000 kPa | 1273.47
298.15 K, 55000 kPa | 1275.21
298.15 K, 60000 kPa | 1276.93
298.15 K, 65000 kPa | 1278.65
303.15 K, 100 kPa | 1249.77
303.15 K, 5000 kPa | 1252.02
303.15 K, 10000 kPa | 1254.17
303.15 K, 15000 kPa | 1256.38
303.15 K, 20000 kPa | 1258.37
303.15 K, 25000 kPa | 1260.46
303.15 K, 30000 kPa | 1262.48
303.15 K, 35000 kPa | 1264.47
303.15 K, 40000 kPa | 1266.35
303.15 K, 45000 kPa | 1268.13
303.15 K, 50000 kPa | 1269.94
303.15 K, 55000 kPa | 1271.81
303.15 K, 60000 kPa | 1273.55
303.15 K, 65000 kPa | 1275.21
308.15 K, 100 kPa | 1246.14
308.15 K, 5000 kPa | 1248.19
308.15 K, 10000 kPa | 1250.57
308.15 K, 15000 kPa | 1252.6
308.15 K, 20000 kPa | 1254.8
308.15 K, 25000 kPa | 1256.85
308.15 K, 30000 kPa | 1258.87
308.15 K, 35000 kPa | 1260.93
308.15 K, 40000 kPa | 1262.88
308.15 K, 45000 kPa | 1264.72
308.15 K, 50000 kPa | 1266.61
308.15 K, 55000 kPa | 1268.36
308.15 K, 60000 kPa | 1270.11
308.15 K, 65000 kPa | 1271.84
313.15 K, 100 kPa | 1242.44
313.15 K, 5000 kPa | 1244.75
313.15 K, 10000 kPa | 1247.02
313.15 K, 15000 kPa | 1249.22
313.15 K, 20000 kPa | 1251.35
313.15 K, 25000 kPa | 1253.46
313.15 K, 30000 kPa | 1255.5
313.15 K, 35000 kPa | 1257.51
313.15 K, 40000 kPa | 1259.52
313.15 K, 45000 kPa | 1261.48
313.15 K, 50000 kPa | 1263.42
313.15 K, 55000 kPa | 1265.2
313.15 K, 60000 kPa | 1267
313.15 K, 65000 kPa | 1268.66
318.15 K, 100 kPa | 1238.82
318.15 K, 5000 kPa | 1241.01
318.15 K, 10000 kPa | 1243.39
318.15 K, 15000 kPa | 1245.52
318.15 K, 20000 kPa | 1247.69
318.15 K, 25000 kPa | 1249.81
318.15 K, 30000 kPa | 1251.93
318.15 K, 35000 kPa | 1253.97
318.15 K, 40000 kPa | 1255.96
318.15 K, 45000 kPa | 1257.93
318.15 K, 50000 kPa | 1259.75
318.15 K, 55000 kPa | 1261.48
318.15 K, 60000 kPa | 1263.53
318.15 K, 65000 kPa | 1265.2
323.15 K, 100 kPa | 1235.3
323.15 K, 5000 kPa | 1237.63
323.15 K, 10000 kPa | 1239.98
323.15 K, 15000 kPa | 1242.24
323.15 K, 20000 kPa | 1244.44
323.15 K, 25000 kPa | 1246.62
323.15 K, 30000 kPa | 1248.63
323.15 K, 35000 kPa | 1250.7
323.15 K, 40000 kPa | 1252.76
323.15 K, 45000 kPa | 1254.69
323.15 K, 50000 kPa | 1256.63
323.15 K, 55000 kPa | 1258.52
323.15 K, 60000 kPa | 1260.31
323.15 K, 65000 kPa | 1262.15
328.15 K, 100 kPa | 1231.68
328.15 K, 5000 kPa | 1233.97
328.15 K, 10000 kPa | 1236.25
328.15 K, 15000 kPa | 1238.61
328.15 K, 20000 kPa | 1240.87
328.15 K, 25000 kPa | 1243.01
328.15 K, 30000 kPa | 1245.19
328.15 K, 35000 kPa | 1247.33
328.15 K, 40000 kPa | 1249.3
328.15 K, 45000 kPa | 1251.23
328.15 K, 50000 kPa | 1253.26
328.15 K, 55000 kPa | 1255.02
328.15 K, 60000 kPa | 1256.98
328.15 K, 65000 kPa | 1258.79
333.15 K, 100 kPa | 1228.25
333.15 K, 5000 kPa | 1230.56
333.15 K, 10000 kPa | 1232.96
333.15 K, 15000 kPa | 1235.23
333.15 K, 20000 kPa | 1237.65
333.15 K, 25000 kPa | 1239.91
333.15 K, 30000 kPa | 1241.9
333.15 K, 35000 kPa | 1244.07
333.15 K, 40000 kPa | 1246.16
333.15 K, 45000 kPa | 1248.15
333.15 K, 50000 kPa | 1250.14
333.15 K, 55000 kPa | 1252
333.15 K, 60000 kPa | 1253.93
333.15 K, 65000 kPa | 1255.7
